Tests used:
[1] = test system: HTelo (F21T-K / F21T-Na) (DNA, G4) GGGTTAGGGTTAGGGTTAGGG; assay: FRET melting; details: 10 mM LiCac, pH 7.3, 0.2 μM DNA, 2 μM compound (1:10)
[2] = test system: Kit1 (labelled) (DNA, G4) AGGGAGGGCGCTGGGAGGAGGG; assay: FRET melting; details: 100 mM KCl; 10 mM LiCac, pH 7.3; 0.2 μM DNA, 2 μM compound (1:10)
[3] = test system: Kit2 (labelled) (DNA, G4) CGGGCGGGCGCGAGGGAGGGG; assay: FRET melting; details: 100 mM KCl; 10 mM LiCac, pH 7.3; 0.2 μM DNA, 2 μM compound (1:10)
[4] = test system: Bcl2 (labelled) (DNA, G4) GGGCGCGGGAGGAATTGGGCGGG; assay: FRET melting; details: 100 mM KCl; 10 mM LiCac, pH 7.3; 0.2 μM DNA, 2 μM compound (1:10)
[5] = test system: F21T-RNA (RNA, G4) GGGUUAGGGUUAGGGUUAGGG; assay: FRET melting; details: 100 mM KCl; 10 mM LiCac, pH 7.3; 0.2 μM DNA, 2 μM compound (1:10)
[6] = test system: TBA (labelled) (DNA, G4) GGTTGGTGTGGTTGG; assay: FRET melting; details: 100 mM KCl; 10 mM LiCac, pH 7.3; 0.2 μM DNA, 1 μM compound (1:5)
[7] = test system: 24TTG (labelled) (DNA, G4) TTGGGTTAGGGTTAGGGTTAGGGA; assay: FRET melting; details: 100 mM KCl; 10 mM LiCac, pH 7.3; 0.2 μM DNA, 2 μM compound (1:10)
[8] = test system: 26TTA (labelled) (DNA, G4) TTAGGGTTAGGGTTAGGGTTAGGGTT; assay: FRET melting; details: 100 mM KCl; 10 mM LiCac, pH 7.3; 0.2 μM DNA, 2 μM compound (1:10)
[9] = test system: ds26 (labelled) (DNA, duplex) CAATCGGATCGAATTCGATCCGATTG; assay: FRET melting; details: 100 mM KCl; 10 mM LiCac, pH 7.3; 0.2 μM DNA, 2 μM compound (1:10)
[10] = test system: HTelo (HTelo22) (DNA, G4) AGGGTTAGGGTTAGGGTTAGGG; assay: thiazole orange displacement (FID); details: 100 mM KCl; 10 mM LiCaco, pH 7.2; 1 μM DNA, 2 μM thiazole orange displaced
[11] = test system: cMyc (DNA, G4) TGAGGGTGGGTAGGGTGGGTAA; assay: thiazole orange displacement (FID); details: 100 mM KCl; 10 mM LiCaco, pH 7.2; 1 μM DNA, 2 μM thiazole orange displaced
[12] = test system: Kit1 (DNA, G4) AGGGAGGGCGCTGGGAGGAGGG; assay: thiazole orange displacement (FID); details: 100 mM KCl; 10 mM LiCaco, pH 7.2; 1 μM DNA, 2 μM thiazole orange displaced
[13] = test system: ds26 (DNA, duplex) CAATCGGATCGAATTCGATCCGATTG; assay: thiazole orange displacement (FID); details: 100 mM KCl; 10 mM LiCaco, pH 7.2; 1 μM DNA, 3 μM thiazole orange displaced
[14] = test system: HTelo (HTelo22) (DNA, G4) AGGGTTAGGGTTAGGGTTAGGG; assay: fluorimetric titration (ligand emission); details: 100 mM KCl; 10 mM Tris, pH 7.4; 1:1 binding model
[15] = test system: cMyc (DNA, G4) TGAGGGTGGGTAGGGTGGGTAA; assay: fluorimetric titration (ligand emission); details: 100 mM KCl; 10 mM Tris, pH 7.4; 1:1 binding model
[16] = test system: Kit1 (DNA, G4) AGGGAGGGCGCTGGGAGGAGGG; assay: fluorimetric titration (ligand emission); details: 100 mM KCl; 10 mM Tris, pH 7.4; 1:1 binding model
[17] = test system: Bcl2 (DNA, G4) GGGCGCGGGAGGAATTGGGCGGG; assay: fluorimetric titration (ligand emission); details: 100 mM KCl; 10 mM Tris, pH 7.4; 1:1 binding model
[18] = test system: ds26 (DNA, duplex) CAATCGGATCGAATTCGATCCGATTG; assay: fluorimetric titration (ligand emission); details: 100 mM KCl; 10 mM Tris, pH 7.4; 1:1 binding model

| ΔTm ([1]; 100 mM KCl) [°C] | ΔTm ([1]; 100 mM NaCl) [°C] | ΔTm [2] [°C] | ΔTm [3] [°C] | ΔTm [4] [°C] | ΔTm [5] [°C] | ΔTm [6] [°C] | ΔTm [7] [°C] | ΔTm [8] [°C] | binding [9] | DC50 [10] [µM] | DC50 [11] [µM] | DC50 [12] [µM] | DC50 [13] [µM] | Ka [14] | Ka [15] | Ka [16] | Ka [17] | Ka [18] | Compound |
| --- | --- | --- | --- | --- | --- | --- | --- | --- | --- | --- | --- | --- | --- | --- | --- | --- | --- | --- | --- |
| > 35 | 24.8 | > 35 | 27.9 | 30.5 | > 26.5 | 19.4 | < 12 | < 12 | no | > 5 | 2.84 | 3.00 | > 5 | > 10^7 M^-1 | 4.5(0.8)x10^5 M^-1 | 4.0(0.4)x10^5 M^-1 | 5.4(0.5)x10^5 M^-1 | 3.5(0.5)x10^5 M^-1 | C[N+](C)(C)CCCOc1ccc(N(c2ccc(OCCC[N+](C)(C)C)cc2)c2ccc(-c3ccc4c(c3)C3(c5ccccc5-c5ccccc53)c3cc(-c5ccc(N(c6ccc(OCCC[N+](C)(C)C)cc6)c6ccc(OCCC[N+](C)(C)C)cc6)cc5)ccc3-4)cc2)cc1 |
| – | – | – | – | – | – | – | – | – | – | > 5 | > 5 | > 5 | 3.52 | 7.2(2)x10^4 M^-1 | 5.6(0.1)x10^4 M^-1 | < 10^3 M^-1 | 5.5(0.3)x10^4 M^-1 | < 10^3 M^-1 | O=S(=O)(O)CCCCOc1ccc(N(c2ccc(OCCCCS(=O)(=O)O)cc2)c2ccc(-c3ccc4c(c3)C3(c5ccccc5-c5ccccc53)c3cc(-c5ccc(N(c6ccc(OCCCCS(=O)(=O)O)cc6)c6ccc(OCCCCS(=O)(=O)O)cc6)cc5)ccc3-4)cc2)cc1 |

Source: article PMC10107164 (2022)
